Assay [1] concerns LU-01-0319 xenotransplantation (PDX) from lung cancer patients. The assay is described as follows: In vivo efficacy, LU-01-0319 xenotransplantation (PDX) from lung cancer patients. Further details: species or system BALB/c nude mice. The settings on record: 10 mg/kg orally everyday. The text has this:
(§1) BALB/c nude mice, female, 6 to 8 weeks, about 18 to 22 g bodyweight, was kept in a special environment without pathogens, and a single ventilated cage (5 mice per cage). Beddings and water in all the cages were disinfected before use. All the animal had free access to standard authorized commercially available lab diet. 80 mice were supplied by Shanghai BK Laboratory Animal Co., LTD for study. Each mouse was subcutaneously implanted tumor tissue (20-30 mm^3) at right flank for growth of tumor. When the average tumor volume reached about 250-300 mm^3, the assay started. Test compounds were delivered orally everyday, 10 mg/kg. Tumor size was measured with two-dimensional caliper every 3 days, size was recorded by mm^3, and calculated by the following formula: V=V=0.5a×b2, where a and b are respectively the long diameter and short diameter length of the tumor. The antitumor efficacy was determined by dividing the average increased tumor volume in compound-treated animal by the average increased tumor volume in untreated animal.

The test system of assay [2] is LU-01-0015 xenotransplantation (PDX) from lung cancer patients. Nature of the assay: In vivo efficacy, LU-01-0015 xenotransplantation (PDX) from lung cancer patients. As to conditions: for Tumor volume: 25 mg/kg orally everyday. Further details: species or system BALB/c nude mice.
From the text: as §1, with “All the animal had free access to standard authorized commercially available lab diet.” left out, “25” for “10”

The subject of assay [3] is LU-01-0319 Crizotinib resistance model. The assay is described as follows: In vivo anti-tumor efficacy, Crizotinib resistant LU-01-0319 xenotransplantation (PDX) tumor. Further details: species or system BALB/c nude mice. The text has this:
LU-01-0319 xenotransplantation tumor models initially obtained from clinical sample through surgical resection were implanted into nude mice, which was defined as a batch of P0 (LU-01-0319-P0). The next batch was defined as P1 (LU-01-0319-P1) which was implanted tumors from P0. FP3 was regained from P2, the next batch was defined as FP4 which was implanted tumors from FP3. […] The continuous increasing tumors were defined as LU-01-0319 antitumor models. BALB/c nude mice, female, 6 to 8 weeks, about 18 to 22 g bodyweight, 75 mice were used for study, supplied by Shanghai BK Laboratory Animal Co., LTD. Tumour biopsies (about 30 mm^3) of LU-01-0319R FP6 were implanted subcutaneously on right side of each mouse for growth of tumor. […] Dose of Crizotinib was appropriately varied depending on the tumor size. When average tumor volume reached about ˜500 mm^3, the assay began. Once a day the compounds to be tested were orally administered. Tumor size were measured twice a week with a caliper at two dimensions, and calculated with the following formula: V=0.5a×b2, where a and b are respectively long diameter and short diameter of the tumor. The antitumor efficacy was determined by dividing the average increased tumor volume in compound-treated animal by the average increased tumor volume in untreated animal.

Assay [4] has as its target T1, ALK C1156Y (Homo sapiens, UniProt Q9UM73, C1156Y).
T1 construct: purchased Carna Biosciences (Japan)
Nature of the assay: ALK C1156Y enzymatic inhibition (HTRF). Format: biochemical. As to conditions: 30 μM ATP. Here is the method: (§2) Enzyme: ALK wild-type, ALK C1156Y and ALK L1196M supplied by Carna Biosciences (Japan), EGFR T790M/L858R supplied by Life technology (Madison, Wis.).
(§3) HTRF kit: supplied by Cis-Bio International, with Eu-marked TK1 antibody, XL665- and biotin-labelled TK1 polypeptide substrates.
Reaction buffer: 50 mM Hepes (pH7.5), 10 mM MgCl2, 0.01 mM NaV3VO4. […] Reaction was reacted at room temperature for 60 minutes.
(§4) Incubation was carried out for 60 minutes at room temperature. Detection was by Envision.

In assay [5] the target is T2, EGFR T790M/L858R (Homo sapiens, UniProt P00533, L858R/T790M).
T2 construct: purchased Life technology (Madison, Wis.)
The assay is described as follows: EGFR T790M/L858R enzymatic inhibition (HTRF). The format is biochemical. The settings on record: 20 μM ATP. On the procedure: as §2, §3
The compound to be tested is diluted at a gradient by 3 times thereby giving 11 gradients starting from […] to 0.017 nM for the final concentration.
10 μl EGFR T790M/L858R enzyme reaction mixture system: 0.08 nM EGFR T790M/L858R, 1 μM biotin-TK1 peptide, 20 μM ATP. Reaction buffer: 50 mM Hepes (pH7.5), 10 mM MgCl2, 0.01 mM NaV3VO4. The reaction plate was white Proxiplate 384-Plus plate (PerkinElmer). Reaction was reacted at room temperature for 60 minutes.
Detecting reaction: 10 μl testing reagent was added to the reaction plate, the final concentration of Antibody was 2 nM, XL665 was 62.5 nM. Incubation was carried out for 60 minutes at room temperature. Detection was by Envision.

In assay [6] the target is T3, ALK wild-type (Homo sapiens, UniProt Q9UM73).
T3 construct: purchased Carna Biosciences (Japan)
The assay is described as follows: ALK wild-type enzymatic inhibition (HTRF). The format is biochemical. The settings on record: 30 μM ATP. Here is the method:
as §2, §3
10 μl wild-type ALK enzyme reaction mixture system: 0.5 nM wild-type ALK, 1 μM biotin-TK1 peptide, 30 μM ATP. Reaction buffer: 50 mM Hepes (pH7.5), 10 mM MgCl2, 0.01 mM NaV3VO4.
as §4
For orientation: Time-resolved FRET reads energy transfer from a long-lived donor to a nearby acceptor.

For assay [7], the target named is T4, ALK L1196M (Homo sapiens, UniProt Q9UM73, L1196M).
T4 construct: purchased Carna Biosciences (Japan)
Nature of the assay: ALK L1196M enzymatic inhibition (HTRF). The settings on record: 30 μM ATP. Format: biochemical. Here is the method: as §2, §3
Reaction buffer: 50 mM Hepes (pH7.5), 10 mM MgCl2, 0.01 mM NaV3VO4.
as §4

The mark [8] stands for this setting: 0 day, dosage 3 mg/Kg orally once a day.
Where [9] appears, read: 0 day, dosage 10 mg/Kg orally once a day.
Setting [10] is: 3 days, dosage 3 mg/Kg orally once a day.
Where [11] appears, read: 3 days, dosage 10 mg/Kg orally once a day.
[12] abbreviates: 7 days, dosage 3 mg/Kg orally once a day.
[13] abbreviates: 7 days, dosage 10 mg/Kg orally once a day.
Where [14] appears, read: 10 days, dosage 3 mg/Kg orally once a day.
Setting [15] is: 10 days, dosage 10 mg/Kg orally once a day.
[16] abbreviates: 13 days, dosage 3 mg/Kg orally once a day.
Where [17] appears, read: 13 days, dosage 10 mg/Kg orally once a day.
Setting [18] is: 17 days, dosage 3 mg/Kg orally once a day.
Setting [19] is: 17 days, dosage 10 mg/Kg orally once a day.
The mark [20] stands for this setting: 19 days, dosage 3 mg/Kg orally once a day.
[21] abbreviates: 19 days, dosage 10 mg/Kg orally once a day.

T3 sequence (Q9UM73 19-1620): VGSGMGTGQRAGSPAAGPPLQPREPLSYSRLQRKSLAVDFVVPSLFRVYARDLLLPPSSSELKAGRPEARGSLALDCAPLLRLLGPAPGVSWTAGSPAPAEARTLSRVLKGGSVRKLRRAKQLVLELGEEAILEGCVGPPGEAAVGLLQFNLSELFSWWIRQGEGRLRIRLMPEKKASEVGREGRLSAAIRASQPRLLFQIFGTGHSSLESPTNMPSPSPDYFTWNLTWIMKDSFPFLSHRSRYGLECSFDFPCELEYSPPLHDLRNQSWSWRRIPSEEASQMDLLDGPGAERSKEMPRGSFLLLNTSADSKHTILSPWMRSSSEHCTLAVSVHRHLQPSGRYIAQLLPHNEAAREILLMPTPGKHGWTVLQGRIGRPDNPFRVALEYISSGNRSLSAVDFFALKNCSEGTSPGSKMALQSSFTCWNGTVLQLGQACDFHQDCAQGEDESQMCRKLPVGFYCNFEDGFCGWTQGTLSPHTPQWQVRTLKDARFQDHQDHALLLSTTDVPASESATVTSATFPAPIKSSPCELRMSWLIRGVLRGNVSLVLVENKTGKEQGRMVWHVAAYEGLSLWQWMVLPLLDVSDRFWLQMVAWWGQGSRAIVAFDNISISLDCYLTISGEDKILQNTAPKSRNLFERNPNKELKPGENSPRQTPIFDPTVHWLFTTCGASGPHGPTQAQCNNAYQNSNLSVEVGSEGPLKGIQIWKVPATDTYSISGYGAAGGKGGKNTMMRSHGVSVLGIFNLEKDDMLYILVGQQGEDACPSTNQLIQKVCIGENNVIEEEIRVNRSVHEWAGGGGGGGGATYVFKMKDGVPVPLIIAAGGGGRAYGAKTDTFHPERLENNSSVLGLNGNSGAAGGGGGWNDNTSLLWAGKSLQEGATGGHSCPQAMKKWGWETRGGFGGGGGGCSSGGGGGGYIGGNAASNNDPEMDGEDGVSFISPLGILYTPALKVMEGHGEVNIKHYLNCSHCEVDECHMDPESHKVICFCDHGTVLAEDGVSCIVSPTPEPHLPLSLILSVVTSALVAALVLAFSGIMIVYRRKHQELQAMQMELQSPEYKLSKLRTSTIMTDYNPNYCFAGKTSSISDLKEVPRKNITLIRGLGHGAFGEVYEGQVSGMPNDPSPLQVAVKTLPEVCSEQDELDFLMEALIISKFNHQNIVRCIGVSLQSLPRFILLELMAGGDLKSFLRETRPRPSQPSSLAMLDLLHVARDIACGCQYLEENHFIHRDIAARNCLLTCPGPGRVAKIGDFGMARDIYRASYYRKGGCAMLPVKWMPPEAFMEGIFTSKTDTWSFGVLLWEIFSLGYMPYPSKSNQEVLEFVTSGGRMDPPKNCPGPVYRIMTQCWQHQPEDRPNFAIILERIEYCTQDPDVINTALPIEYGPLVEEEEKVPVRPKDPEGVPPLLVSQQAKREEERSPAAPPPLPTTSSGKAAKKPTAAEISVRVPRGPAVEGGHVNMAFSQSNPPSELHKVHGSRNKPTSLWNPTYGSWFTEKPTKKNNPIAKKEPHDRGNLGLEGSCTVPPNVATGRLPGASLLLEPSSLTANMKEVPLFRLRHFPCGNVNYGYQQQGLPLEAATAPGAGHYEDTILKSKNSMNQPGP
T2 sequence (P00533 25-1210 T790M/L858R): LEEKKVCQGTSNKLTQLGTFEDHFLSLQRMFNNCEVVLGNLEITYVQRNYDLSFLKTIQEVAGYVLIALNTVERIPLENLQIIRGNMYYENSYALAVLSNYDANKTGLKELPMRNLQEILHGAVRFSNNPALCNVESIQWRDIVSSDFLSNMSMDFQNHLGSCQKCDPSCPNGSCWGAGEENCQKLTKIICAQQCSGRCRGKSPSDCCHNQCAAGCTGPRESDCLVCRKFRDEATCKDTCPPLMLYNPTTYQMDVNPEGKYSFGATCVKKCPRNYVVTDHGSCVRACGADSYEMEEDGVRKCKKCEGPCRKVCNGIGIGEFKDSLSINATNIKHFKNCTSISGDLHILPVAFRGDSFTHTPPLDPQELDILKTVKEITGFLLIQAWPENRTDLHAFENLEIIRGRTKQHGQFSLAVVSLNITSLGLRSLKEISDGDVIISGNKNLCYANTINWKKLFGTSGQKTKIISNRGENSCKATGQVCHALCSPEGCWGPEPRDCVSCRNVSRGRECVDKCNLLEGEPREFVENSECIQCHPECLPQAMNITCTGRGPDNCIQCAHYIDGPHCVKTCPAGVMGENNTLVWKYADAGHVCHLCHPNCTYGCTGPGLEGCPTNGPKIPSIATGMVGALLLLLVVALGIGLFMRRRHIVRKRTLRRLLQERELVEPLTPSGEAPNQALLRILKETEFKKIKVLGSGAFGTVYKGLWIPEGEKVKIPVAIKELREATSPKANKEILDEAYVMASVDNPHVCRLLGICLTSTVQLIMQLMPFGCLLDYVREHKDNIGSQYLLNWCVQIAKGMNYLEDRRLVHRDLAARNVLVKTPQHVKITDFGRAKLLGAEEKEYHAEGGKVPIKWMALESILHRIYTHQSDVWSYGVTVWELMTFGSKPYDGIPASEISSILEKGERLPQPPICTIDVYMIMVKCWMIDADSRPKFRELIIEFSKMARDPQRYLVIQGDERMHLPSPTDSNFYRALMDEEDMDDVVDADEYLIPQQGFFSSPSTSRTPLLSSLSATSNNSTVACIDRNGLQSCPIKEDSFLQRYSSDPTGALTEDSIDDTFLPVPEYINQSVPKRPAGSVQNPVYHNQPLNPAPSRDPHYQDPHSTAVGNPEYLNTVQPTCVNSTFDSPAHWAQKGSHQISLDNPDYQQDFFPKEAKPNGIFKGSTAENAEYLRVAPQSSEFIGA
T4 sequence (Q9UM73 19-1620 L1196M): as the sequence (Q9UM73 19-1620) above, with L1178M counted along it
T1 sequence (Q9UM73 19-1620 C1156Y): as the sequence (Q9UM73 19-1620) above, with C1138Y counted along it

For the compound `COc1cc(N2CCC(N3CCN(C)CC3)CC2)ccc1Nc1ncc(Cl)c(Nc2ccccc2P(C)(C)=O)n1` [AP26113, reference compound], the Tumor volume in assay [1] (0 days) was 371 mm^3; in assay [1] (2 days) it was 437 mm^3; in assay [1] (6 days), 448 mm^3; in assay [1] (9 days) it was 485 mm^3; in assay [1] (13 days), 512 mm^3; in assay [1] (16 days), 492 mm^3. Besides, the Tumor volume stood at 457 mm^3 in assay [1] (20 days); 391 mm^3 in assay [1] (23 days); 207 mm^3 in assay [2] (3 days); 174 mm^3 in assay [2] (6 days); 162 mm^3 in assay [2] (9 days); 142 mm^3 in assay [2] (12 days). In addition, the Tumor volume amounted to 119 mm^3 in assay [2] (16 days); 122 mm^3 in assay [2] (19 days); 119 mm^3 in assay [2] (23 days); 501 mm^3 in assay [3] (setting [8]); 502 mm^3 in assay [3] (setting [9]); 656 mm^3 in assay [3] (setting [10]). Besides, the Tumor volume stood at 646 mm^3 in assay [3] (setting [11]); 690 mm^3 in assay [3] (setting [12]); 604 mm^3 in assay [3] (setting [13]); 898 mm^3 in assay [3] (setting [14]); 593 mm^3 in assay [3] (setting [15]); 1096 mm^3 in assay [3] (setting [16]). Also, the Tumor volume in assay [3] (setting [17]) turned out to be 504 mm^3; in assay [3] (setting [18]) it was 1415 mm^3; in assay [3] (setting [19]) it was 568 mm^3; in assay [3] (setting [20]), 1499 mm^3; in assay [3] (setting [21]), 508 mm^3. In assay [2] (after 16 days, 25 mg/kg), the “tumor volume was reduced to (from 277 mm^3)” value was 119 mm^3.

As to `COc1ccc(C2CC3(CCN(C)C3)C2)cc1Nc1ncc(Cl)c(Nc2ccccc2P(C)(C)=O)n1` (stereo not shown) [Compound 1, (2-((5-chloro-2-((2-methoxy-5-(6-methyl-6-azaspiro[3.4]octan-2-yl)phenyl)amino)pyrimidin-4-yl)amino)phenyl)dimethylphosphine oxide], the half-inhibitory concentration (IC50) is 101 to 1000 nM in assay [4], 101 to 1000 nM in assay [5], 1 to 100 nM in assay [6] and 101 to 1000 nM in assay [7].

As for `COc1ccc(C2CC3(CC(=O)N(C)C3)C2)cc1Nc1ncc(Cl)c(Nc2ccccc2P(C)(C)=O)n1` (stereo not shown) [Compound 2, 2-(3-((5-Chloro-4-((2-(dimethylphosphoryl)phenyl)amino)pyrimidin-2-yl)amino)-4-methoxyphen-yl)-6-methyl-6-azaspiro[3.4]octan-7-one], the IC50 in assay [4], in assay [5], in assay [6] and in assay [7] was 101 to 1000 nM throughout.

Regarding `COc1cc(N2CCC3(CN(C)C3)C2)ccc1Nc1ncc(Cl)c(Nc2ccccc2P(C)(C)=O)n1` [Compound 7, (2-((5-Chloro-2-((2-methoxy-4-(2-methyl-2,6-diazaspiro[3.4]octan-6-yl)phenyl)amino)pyrimidin-4-yl)amino)phenyl)dimethyl phosphine oxide], the IC50 in assay [4] lay within 101 to 1000 nM; in assay [5], 101 to 1000 nM; in assay [6], 1 to 100 nM; in assay [7], 101 to 1000 nM.

As for `COc1cc(N2CCC3(CC2)CCN(C(C)C)CC3)ccc1Nc1ncc(Cl)c(Nc2ccccc2P(C)(C)=O)n1` [Compound 10, (2-((5-Chloro-2-((4-(9-isopropyl-3,9-diazaspiro[5.5]undecan-3-yl)-2-methoxyphenyl)amino)pyrimidin-4-yl)amino)phenyl)dimethyl phosphine oxide], the IC50 in assay [4], in assay [5], in assay [6] and in assay [7] was 1 to 100 nM each time.

As to `COc1cc(C2CCC3(CC2)CCN(C)CC3)ccc1Nc1ncc(Cl)c(Nc2ccccc2P(C)(C)=O)n1` [Compound 27, (2-((5-Chloro-2-((2-methoxy-4-(3-methyl-3-azaspiro[5.5]undecan-9-yl)phenyl)amino)pyrimidin-4-yl)amino)phenyl)dimethyl phosphine oxide], the Tumor volume in assay [2] (3 days) came out at 158 mm^3; in assay [2] (6 days), 82 mm^3; in assay [2] (9 days), 68 mm^3; in assay [2] (12 days), 49 mm^3; in assay [2] (16 days) it was 34 mm^3; in assay [2] (19 days), 41 mm^3. Also, the Tumor volume in assay [2] (23 days) is on record as 35 mm^3; in assay [3] (setting [8]) it was 503 mm^3; in assay [3] (setting [9]), 502 mm^3; in assay [3] (setting [10]), 689 mm^3; in assay [3] (setting [11]) it was 650 mm^3; in assay [3] (setting [12]), 777 mm^3. The Tumor volume turned out to be 752 mm^3 in assay [3] (setting [13]); 1003 mm^3 in assay [3] (setting [14]); 743 mm^3 in assay [3] (setting [15]); 1177 mm^3 in assay [3] (setting [16]); 705 mm^3 in assay [3] (setting [17]); 1490 mm^3 in assay [3] (setting [18]). The Tumor volume in assay [3] (setting [19]) is listed as 756 mm^3; in assay [3] (setting [20]), 1602 mm^3; in assay [3] (setting [21]), 692 mm^3. This compound had an IC50 in assay [5] of 1 to 100 nM.

Regarding `Cc1cc(Nc2ncc(Cl)c(Nc3ccccc3S(=O)(=O)C(C)C)n2)c(OC(C)C)cc1C1CCNCC1` [LDK378], the Tumor volume in assay [1] (0 days) was 373 mm^3; in assay [1] (2 days), 397 mm^3; in assay [1] (6 days), 366 mm^3; in assay [1] (9 days), 350 mm^3; in assay [1] (13 days), 425 mm^3; in assay [1] (16 days), 369 mm^3. For the same compound, the Tumor volume in assay [1] (20 days) came to 329 mm^3; in assay [1] (23 days), 268 mm^3.

One may read the IC50 as the midpoint of a concentration-inhibition curve. Low readings indicate inhibition by little substance, high ones a need for much substance.

(Values after US10053477B2, “Spirocyclic aryl phosphorus oxide and aryl phosphorus sulfide” (QILU PHARMACEUTICAL CO., LTD., priority 2014, dated 2018).)
